Consider 19 compounds from US12281122B1, “PI3K inhibitors” (Cogent Biosciences, Inc., priority 2023, dated 2025).

SMILES strings stand for the structures.

A word on the IC50: it is the point on the concentration scale where inhibition reaches its midpoint. A lower IC50 goes with inhibition by little substance.

In assay [1] the test system is SKBR3 (PI3Kα-Wild Type) cell line. The experiment in a line: HTRF phospho-AKT(S473) cell assay in SKBR3 cells. The class given is cell-based, human. The method in brief:
(§1)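 HTRF read-out of phospho-AKT(S473) in lysates gave IC50 values after 2 h compound exposure at 37° C. Dose series was 12 points at 1:3, topping at 5 μM for T47D and 10 μM for SKBR3. Only SKBR3 received 70 ng/ml PDGF-BB during the last 15 minutes.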
A general note: Time-resolved FRET reads energy transfer from a long-lived donor to a nearby acceptor.

Assay [2] deals with T47D (PI3Kα-H1047R) cell line. In words: HTRF phospho-AKT(S473) cell assay in T47D cells. Format: cell-based, human. The method in brief:
as §1

Where [3] appears, read: Homo sapiens, SK-BR-3; SKBR3 (PI3Kα-Wild Type) cells, HTRF phospho-AKT(S473), 2 hours compound incubation, PDGF-BB stimulated.
Setting [4] is: Homo sapiens; T47D (PI3Kα-H1047R) cells, HTRF phospho-AKT(S473), 2 hours compound incubation.
Setting [5] is: Homo sapiens, SK-BR-3; HTRF phospho-AKT(S473), SKBR3 (PI3Kα-Wild Type) cells, 2 hours compound incubation, PDGF-BB stimulated.
[6] abbreviates: Homo sapiens; HTRF phospho-AKT(S473), T47D (PI3Kα-H1047R) cells, 2 hours compound incubation.

Consider `Cc1cc([C@@H](C)Nc2ccc(Cl)nc2C(=O)NS(C)(=O)=O)c2nc(N3C[C@@H]4[C@H](C3)[C@H]4c3cnc(C)c(F)c3)n(C)c(=O)c2c1` [Compound 423, 6-chloro-3-(((R)-1-(2-((1R,5S,6S)-6-(5-fluoro-6-methylpyridin-3-yl)-3-azabicyclo[3.1.0]hexan-3-yl)-3,6-dimethyl-4-oxo-3,4-dihydroquinazolin-8-yl)ethyl)amino)-N-(methylsulfonyl) picolinamide], for which the figures for the IC50 in assay [1] (setting [3]) and in assay [2] (setting [4]) were at least 5000 nM and 250 to 500 nM, respectively.

With `Cc1cc([C@@H](C)Nc2ccc(Cl)nc2C(=O)NS(C)(=O)=O)c2nc(N3Cc4cnn([C@@H](C)C(F)(F)F)c4C3)n(C)c(=O)c2c1` (relative stereo) [Compound 284, 6-chloro-3-(((R)-1-(3,6-dimethyl-4-oxo-2-(1-((R*)-1,1,1-trifluoropropan-2-yl)-4,6-dihydropyrrolo[3,4-c]pyrazol-5(1H)-yl)-3,4-dihydroquinazolin-8-yl)ethyl)amino)-N-(methylsulfonyl) picolinamide], the IC50 was 1000 to 5000 nM in assay [1] (setting [3]) and under 250 nM in assay [2] (setting [4]).

Regarding `Cc1cc([C@@H](C)Nc2ccc(Cl)nc2C(=O)NS(C)(=O)=O)c2nc(-c3cnn(C)c3)n(C)c(=O)c2c1` [Compound 288, (R)-6-chloro-3-((1-(3,6-dimethyl-2-(1-methyl-1H-pyrazol-4-yl)-4-oxo-3,4-dihydroquinazolin-8-yl)ethyl)amino)-N-(methylsulfonyl) picolinamide], the values for the IC50 in assay [1] (setting [3]) and in assay [2] (setting [4]) were 1000 to 5000 nM and under 250 nM, respectively.

For the compound `Cc1cnc(C2[C@H]3CN(c4nc5c([C@@H](C)Nc6ccc(Cl)nc6C(=O)NS(C)(=O)=O)cc(C)cc5c(=O)n4C)C[C@@H]23)nc1` (stereo partly drawn) [Compound 515, 6-chloro-3-(((1R)-1-(3,6-dimethyl-2-((1R,5S)-6-(5-methylpyrimidin-2-yl)-3-azabicyclo[3.1.0]hexan-3-yl)-4-oxo-3,4-dihydroquinazolin-8-yl)ethyl)amino)-N-(methylsulfonyl) picolinamide], the IC50 in assay [1] (setting [5]) is 1000 to 5000 nM; in assay [2] (setting [6]), under 250 nM.

With `Cc1cc([C@@H](C)Nc2ccc(Cl)nc2C(=O)NS(C)(=O)=O)c2nc(N3CC[C@@H](Oc4ccnn4C)C3)n(C)c(=O)c2c1` [Compound 352, 6-chloro-3-(((R)-1-(3,6-dimethyl-2-((R)-3-((1-methyl-1H-pyrazol-5-yl)oxy)pyrrolidin-1-yl)-4-oxo-3,4-dihydroquinazolin-8-yl)ethyl)amino)-N-(methylsulfonyl) picolinamide], the IC50 in assay [1] (setting [3]) was 1000 to 5000 nM; in assay [2] (setting [4]) it was under 250 nM.

As for `Cc1cc([C@@H](C)Nc2ccc(Cl)nc2C(=O)NS(C)(=O)=O)c2nc(N3C[C@@H]4C(c5cnc(C(F)F)nc5)[C@@H]4C3)n(C)c(=O)c2c1` (stereo partly drawn) [Compound 536, 6-chloro-3-(((1R)-1-(2-((1R,5S)-6-(2-(difluoromethyl)pyrimidin-5-yl)-3-azabicyclo[3.1.0]hexan-3-yl)-3,6-dimethyl-4-oxo-3,4-dihydroquinazolin-8-yl)ethyl)amino)-N-(methylsulfonyl) picolinamide], the IC50 in assay [1] (setting [5]) was 1000 to 5000 nM; in assay [2] (setting [6]), under 250 nM.

For the compound `Cc1cc([C@@H](C)Nc2ccc(Cl)nc2C(=O)NS(C)(=O)=O)c2nc(N3Cc4cnn(C(F)F)c4C3)n(C)c(=O)c2c1` [Compound 172, (R)-6-chloro-3-((1-(2-(1-(difluoromethyl)-4,6-dihydropyrrolo[3,4-c]pyrazol-5(1H)-yl)-3,6-dimethyl-4-oxo-3,4-dihydroquinazolin-8-yl)ethyl)amino)-N-(methylsulfonyl) picolinamide], the IC50 in assay [1] (setting [3]) was 1000 to 5000 nM; in assay [2] (setting [4]), under 250 nM.

`Cc1cc([C@@H](C)Nc2ccc(Cl)nc2C(=O)NS(C)(=O)=O)c2nc(N3CCC(c4cnc(C)c(F)c4)CC3)n(C)c(=O)c2c1` [Compound 422, (R)-6-chloro-3-((1-(2-(4-(5-fluoro-6-methylpyridin-3-yl)piperidin-1-yl)-3,6-dimethyl-4-oxo-3,4-dihydroquinazolin-8-yl)ethyl)amino)-N-(methylsulfonyl) picolinamide]: the IC50 in assay [1] (setting [3]) is 1000 to 5000 nM; in assay [2] (setting [4]) it was under 250 nM.

As for `Cc1cc([C@@H](C)Nc2ccc(Cl)nc2C(=O)NS(C)(=O)=O)c2nc(N3Cc4cn(CC5CC5)nc4C3)n(C)c(=O)c2c1` [Compound 683, (R)-6-chloro-3-((1-(2-(2-(cyclopropylmethyl)-2,6-dihydropyrrolo[3,4-c]pyrazol-5(4H)-yl)-3,6-dimethyl-4-oxo-3,4-dihydroquinazolin-8-yl)ethyl)amino)-N-(methylsulfonyl) picolinamide], the IC50 in assay [1] (setting [5]) is 1000 to 5000 nM; in assay [2] (setting [6]) it was 250 to 500 nM.

As to `Cc1ccc(C2CCN(c3nc4c([C@@H](C)Nc5ccc(Cl)nc5C(=O)NS(C)(=O)=O)cc(C)cc4c(=O)n3C)CC2)nc1` [Compound 403, (R)-6-chloro-3-((1-(3,6-dimethyl-2-(4-(5-methylpyridin-2-yl)piperidin-1-yl)-4-oxo-3,4-dihydroquinazolin-8-yl)ethyl)amino)-N-(methylsulfonyl) picolinamide], the IC50 was at least 5000 nM in assay [1] (setting [3]) and under 250 nM in assay [2] (setting [4]).

`Cc1cc([C@@H](C)Nc2ccc(Cl)nc2C(=O)NS(C)(=O)=O)c2nc(N3C[C@@H]4CC(n5cc(C)cn5)C[C@H]4C3)n(C)c(=O)c2c1` (single isomer, unassigned) [Compound 367, 6-chloro-3-(((R)-1-(3,6-dimethyl-2-((3aR*,6aR*)-5-(4-methyl-1H-pyrazol-1-yl)hexahydrocyclopenta [c]pyrrol-2(1H)-yl)-4-oxo-3,4-dihydroquinazolin-8-yl)ethyl)amino)-N-(methylsulfonyl) picolinamide]: the IC50 in assay [1] (setting [3]) was at least 5000 nM; in assay [2] (setting [4]), under 250 nM.

As for `Cc1cc([C@@H](C)Nc2ccc(Cl)nc2C(=O)NS(C)(=O)=O)c2nc(N3CCC(c4nccc(C)n4)CC3)n(C)c(=O)c2c1` [Compound 468, (R)-6-chloro-3-((1-(3,6-dimethyl-2-(4-(4-methylpyrimidin-2-yl)piperidin-1-yl)-4-oxo-3,4-dihydroquinazolin-8-yl)ethyl)amino)-N-(methylsulfonyl) picolinamide], the IC50 in assay [1] (setting [5]) was at least 5000 nM; in assay [2] (setting [6]) it was under 250 nM.

Take `Cc1cc([C@@H](C)Nc2ccc(Cl)nc2C(=O)NS(C)(=O)=O)c2nc(N3CCC4(CCc5c(cnn5C)C4)CC3)n(C)c(=O)c2c1` [Compound 344, (R)-6-chloro-3-((1-(3,6-dimethyl-2-(1-methyl-1,4,6,7-tetrahydrospiro[indazole-5,4′-piperidin]-1′-yl)-4-oxo-3,4-dihydroquinazolin-8-yl)ethyl)amino)-N-(methylsulfonyl) picolinamide]: the values for the IC50 in assay [1] (setting [3]) and in assay [2] (setting [4]) were at least 5000 nM and under 250 nM, respectively.

As for `Cc1cc([C@@H](C)Nc2ccc(Cl)nc2C(=O)NS(C)(=O)=O)c2nc(N3C[C@@H]4[C@H](C3)[C@H]4c3cnc(C)nc3)n(C3CC3)c(=O)c2c1` [Compound 606, 6-chloro-3-(((R)-1-(3-cyclopropyl-6-methyl-2-((1R,5S,6S)-6-(2-methylpyrimidin-5-yl)-3-azabicyclo[3.1.0]hexan-3-yl)-4-oxo-3,4-dihydroquinazolin-8-yl)ethyl)amino)-N-(methylsulfonyl) picolinamide], the IC50 was at least 5000 nM in assay [1] (setting [5]) and 250 to 500 nM in assay [2] (setting [6]).

As to `Cc1cc([C@@H](C)Nc2ccc(Cl)nc2C(=O)NS(C)(=O)=O)c2nc(N3C[C@@H]4C[C@H]3CN4c3ccc(F)cn3)n(C)c(=O)c2c1` [Compound 623, 6-chloro-3-(((R)-1-(2-((1S,4S)-5-(5-fluoropyridin-2-yl)-2,5-diazabicyclo [2.2.1]heptan-2-yl)-3,6-dimethyl-4-oxo-3,4-dihydroquinazolin-8-yl)ethyl)amino)-N-(methylsulfonyl) picolinamide], the IC50 in assay [1] (setting [5]) was at least 5000 nM; in assay [2] (setting [6]), 250 to 500 nM.

Consider `COc1cnc([C@H]2[C@@H]3CN(c4nc5c([C@@H](C)Nc6ccc(Cl)nc6C(=O)NS(C)(=O)=O)cc(C)cc5c(=O)n4C)C[C@@H]32)cn1` [Compound 641, 6-chloro-3-(((R)-1-(2-((1R,5S,6R)-6-(5-methoxypyrazin-2-yl)-3-azabicyclo[3.1.0]hexan-3-yl)-3,6-dimethyl-4-oxo-3,4-dihydroquinazolin-8-yl)ethyl)amino)-N-(methylsulfonyl) picolinamide], for which the half-inhibitory concentration (IC50) is at least 5000 nM in assay [1] (setting [5]) and 250 to 500 nM in assay [2] (setting [6]).

Regarding `Cc1cc([C@@H](C)Nc2ccc(Cl)nc2C(=O)NS(C)(=O)=O)c2nc(N3CCC(c4nc(C)co4)CC3)n(C)c(=O)c2c1` [Compound 545, (R)-6-chloro-3-((1-(3,6-dimethyl-2-(4-(4-methyloxazol-2-yl)piperidin-1-yl)-4-oxo-3,4-dihydroquinazolin-8-yl)ethyl)amino)-N-(methylsulfonyl) picolinamide], the figures for the IC50 in assay [1] (setting [5]) and in assay [2] (setting [6]) were at least 5000 nM and under 250 nM, respectively.

For `Cc1cc([C@@H](C)Nc2ccc(Cl)nc2C(=O)NS(C)(=O)=O)c2nc(N3CCN(c4cc(F)cnc4C)CC3)n(C)c(=O)c2c1` [Compound 730, (R)-6-chloro-3-((1-(2-(4-(5-fluoro-2-methylpyridin-3-yl)piperazin-1-yl)-3,6-dimethyl-4-oxo-3,4-dihydroquinazolin-8-yl)ethyl)amino)-N-(methylsulfonyl) picolinamide], the IC50 in assay [1] (setting [5]) is 1000 to 5000 nM; in assay [2] (setting [6]), 250 to 500 nM.

For `Cc1cc([C@@H](C)Nc2ccc(Cl)nc2C(=O)NS(C)(=O)=O)c2nc(-c3ccc(C4(C#N)CC4)cc3)n(C)c(=O)c2c1` [Compound 773, (R)-6-chloro-3-((1-(2-(4-(1-cyanocyclopropyl)phenyl)-3,6-dimethyl-4-oxo-3,4-dihydroquinazolin-8-yl)ethyl)amino)-N-(methylsulfonyl) picolinamide], the IC50 was 1000 to 5000 nM in assay [1] (setting [5]) and under 250 nM in assay [2] (setting [6]).
